Reference: patent US12447159B2 (AELIS FARMA, priority 2018, dated 2025)

How the values were obtained:
[1] = Metabolic stability in human liver microsomes (HLM); assay type: in vitro ADME; conditions: human LM, NADPH
Protocol: (§1) The investigation was performed on liver microsomes (LM) coming from mouse (MLM), rat (RLM), dog (DLM) and human (HLM).
(§2) 3pMBP was incubated with liver microsome pools supplemented with NADPH as cofactor. Samples were taken at 5 different times (0, 10, 20, 30 and 60 minutes) and samples were monitored for parent compound disappearance in MRM mode using LC/MS-MS. The Intrinsic Clearance and half-life have been determined. Verapamil was used as reference compound.

CYP 2C9 = CYP 2C9 (Homo sapiens, UniProt P11712); assay: CYP inhibition in human liver microsomes; conditions: 10 μM
Source text: Reaction was initiated by adding NADPH-generating compounds and after stopping of reaction and samples treatment; HPLC-UV/VIS and HPLC-MS/MS detection were used for detection of peak areas corresponding to the metabolite of each substrate.

OAT3 = OAT3 (Homo sapiens, UniProt Q8TCC7); assay: Cellular transporter inhibition, CHO cells (fluorometry); conditions: 10 μM
Protocol: Chinese Hamster Ovary (CHO) were used for all transporters except for P-gp that was studied in Madin-Darby Canine Kidney (MDR1-MDCKII) cells. The inhibition of the activity of each transporter is evaluated by measuring changes in the transport of their specific substrates by fluorometry.

[2] = Metabolic stability in dog liver microsomes (DLM); assay type: in vitro ADME; conditions: dog LM, NADPH
Protocol: as §1, §2

hERG current = target: T1, hERG current (Homo sapiens, UniProt Q12809); assay: hERG tail current in stably transfected HEK-293 cells (GLP); assay type: cell-based; conditions: 100 nM, 1 μM and 10 μM
T1 construct: expressed in transfected cells; host or cells: HEK-293
Protocol: E-4031 was used as positive control and was tested in one separate HEK-293 cell to support the validity of the method used.
Cells were clamped to −80 mV, depolarised to 0 mV for 5 sec allowing activation of hERG current and repolarised to −50 mV for 5 sec allowing hERG tail current to deactivate. This experimental procedure was repeated at a frequency of 0.06 Hz. Currents were filtered at 1 kHz and acquired at the frequency of 2 kHz. Amplitude of hERG tail current was measured during the repolarizing pulse from 0 to −50 mV. […] Currents were measured before and after exposure to the test item.

[3] = test system: THC-induced increase in food intake; assay: THC-induced increase in food intake (fasting-refeeding model); assay type: in vivo; conditions: mice
Protocol: The effects of THC on food intake were studied using the fasting-refeeding model (Bellochio et al., 2010) in CB1^f/f male mice. […] Food intake was measured for one hour. Independent groups of animals (at least n=8 per group) were used for each treatment condition.

THC dependent mice = assay: Precipitated withdrawal in mice chronically treated with THC; assay type: in vivo; conditions: mice repeatedly treated with THC 20 mg/kg ip; Rimo 10 mg/kg ip; 3pMBP […] per os
Protocol: The chronic THC regimen (20 mg/kg, twice a day) used in these experiments has been chosen because it mimics heavy marijuana use (Cook et al., 1998) and is considered as a model of cannabinoids dependence in mice (Cutando et al., 2013; Hutcheson et al., 1998). […] From day 1 to 4-5, mice were injected ip with vehicle or THC (20 mg/kg in NaCl 0.9% containing 2% ethanol and 2% Tween80, 10 ml/kg) twice a day. […] All the other animals received the administration of the respective vehicle. […] The dose and schedule of administration of rimonabant chosen for this study has been commonly used to precipitate THC withdrawal in mice (Cook et al. 1998, Hutcheson et al., 1998, Huang et al., 2009).
For the measure of precipitated withdrawal, mice were placed in a novel home cage and a video camera positioned in front of each cage recorded animals' behaviors. Scoring was performed for 1 minute every 5 min-period. Two withdrawal signs were analyzed: paw tremors and head shaking, since they are the most common signs of THC withdrawal observed in mice (Cook et al. 1998, Hutcheson et al., 1998, Lichtman et al., 2001).

CYP1A2 = assay: CYP induction (mRNA level); assay type: in vitro ADME; conditions: 10 nM, 100 nM and 1 μM
UGT1A1 = UGT1A1 (Homo sapiens, UniProt P22309); assay: UGT1A1 inhibition (recombinant, scopoletin substrate) assay; assay type: in vitro ADME; conditions: 10 μM
Protocol: The reaction is initiated by adding the co-factor uridine-diphosphoglucuronic acid (UDPGA), the incubation is continued for 60 minutes and relative fluorescence intensity (RFI) is measured on a fluorescent plate reader.

[4] = test system: testosterone, DHEA and allopregnanolone; assay: Conversion in downstream steroids, dogs (GC/MS-MS); assay type: in vivo; conditions: male and female dogs; acute or repeated (28 days) 2, 9 and 36 mg/kg
Protocol: In all these studies plasma concentrations of steroids were measured by gas chromatography-tandem mass spectrometry (GC/MS-MS).

[5] = per os 3 h before THC 1 mg/kg ip

UGT1A1, sequence (P22309 26-533): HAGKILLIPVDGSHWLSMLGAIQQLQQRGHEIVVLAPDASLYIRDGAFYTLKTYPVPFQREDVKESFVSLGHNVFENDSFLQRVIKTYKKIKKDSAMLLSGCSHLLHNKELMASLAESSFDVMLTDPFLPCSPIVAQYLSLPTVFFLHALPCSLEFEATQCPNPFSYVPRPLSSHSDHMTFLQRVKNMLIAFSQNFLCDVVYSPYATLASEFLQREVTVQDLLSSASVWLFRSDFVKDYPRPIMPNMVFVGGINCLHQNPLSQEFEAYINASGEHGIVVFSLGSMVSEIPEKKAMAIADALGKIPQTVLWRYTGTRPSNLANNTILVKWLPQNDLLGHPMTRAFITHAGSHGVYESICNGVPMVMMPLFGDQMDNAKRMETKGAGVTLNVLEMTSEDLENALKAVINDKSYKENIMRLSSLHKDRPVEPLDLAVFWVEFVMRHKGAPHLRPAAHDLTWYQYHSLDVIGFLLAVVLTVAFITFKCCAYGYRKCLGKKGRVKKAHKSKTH
CYP 2C9, sequence (P11712 whole entry): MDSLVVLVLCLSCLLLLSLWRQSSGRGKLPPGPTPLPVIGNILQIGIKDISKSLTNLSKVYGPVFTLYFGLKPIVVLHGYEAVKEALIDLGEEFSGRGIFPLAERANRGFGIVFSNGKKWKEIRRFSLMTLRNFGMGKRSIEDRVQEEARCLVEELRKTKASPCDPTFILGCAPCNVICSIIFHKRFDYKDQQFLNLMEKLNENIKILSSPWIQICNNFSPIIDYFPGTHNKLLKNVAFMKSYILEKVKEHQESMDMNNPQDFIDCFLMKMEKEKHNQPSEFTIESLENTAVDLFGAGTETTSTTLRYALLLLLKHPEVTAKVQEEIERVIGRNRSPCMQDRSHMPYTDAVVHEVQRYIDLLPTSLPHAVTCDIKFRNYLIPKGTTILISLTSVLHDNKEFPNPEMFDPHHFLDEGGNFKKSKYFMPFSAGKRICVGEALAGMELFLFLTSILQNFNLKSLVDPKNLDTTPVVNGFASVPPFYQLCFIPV
OAT3, sequence (Q8TCC7 whole entry): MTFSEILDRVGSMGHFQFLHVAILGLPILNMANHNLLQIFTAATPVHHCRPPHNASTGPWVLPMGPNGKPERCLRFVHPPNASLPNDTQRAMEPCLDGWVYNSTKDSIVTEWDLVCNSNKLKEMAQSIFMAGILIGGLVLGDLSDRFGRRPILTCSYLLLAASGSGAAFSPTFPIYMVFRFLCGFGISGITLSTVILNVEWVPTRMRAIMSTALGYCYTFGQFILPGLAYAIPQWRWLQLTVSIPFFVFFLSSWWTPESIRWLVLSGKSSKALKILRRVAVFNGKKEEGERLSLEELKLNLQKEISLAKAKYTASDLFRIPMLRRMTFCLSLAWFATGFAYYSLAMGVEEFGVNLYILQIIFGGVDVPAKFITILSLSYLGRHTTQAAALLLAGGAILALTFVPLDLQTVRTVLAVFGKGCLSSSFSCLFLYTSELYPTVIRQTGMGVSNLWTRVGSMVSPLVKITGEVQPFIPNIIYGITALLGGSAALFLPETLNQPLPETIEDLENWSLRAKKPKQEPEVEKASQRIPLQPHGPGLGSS
T1 sequence (Q12809 whole entry): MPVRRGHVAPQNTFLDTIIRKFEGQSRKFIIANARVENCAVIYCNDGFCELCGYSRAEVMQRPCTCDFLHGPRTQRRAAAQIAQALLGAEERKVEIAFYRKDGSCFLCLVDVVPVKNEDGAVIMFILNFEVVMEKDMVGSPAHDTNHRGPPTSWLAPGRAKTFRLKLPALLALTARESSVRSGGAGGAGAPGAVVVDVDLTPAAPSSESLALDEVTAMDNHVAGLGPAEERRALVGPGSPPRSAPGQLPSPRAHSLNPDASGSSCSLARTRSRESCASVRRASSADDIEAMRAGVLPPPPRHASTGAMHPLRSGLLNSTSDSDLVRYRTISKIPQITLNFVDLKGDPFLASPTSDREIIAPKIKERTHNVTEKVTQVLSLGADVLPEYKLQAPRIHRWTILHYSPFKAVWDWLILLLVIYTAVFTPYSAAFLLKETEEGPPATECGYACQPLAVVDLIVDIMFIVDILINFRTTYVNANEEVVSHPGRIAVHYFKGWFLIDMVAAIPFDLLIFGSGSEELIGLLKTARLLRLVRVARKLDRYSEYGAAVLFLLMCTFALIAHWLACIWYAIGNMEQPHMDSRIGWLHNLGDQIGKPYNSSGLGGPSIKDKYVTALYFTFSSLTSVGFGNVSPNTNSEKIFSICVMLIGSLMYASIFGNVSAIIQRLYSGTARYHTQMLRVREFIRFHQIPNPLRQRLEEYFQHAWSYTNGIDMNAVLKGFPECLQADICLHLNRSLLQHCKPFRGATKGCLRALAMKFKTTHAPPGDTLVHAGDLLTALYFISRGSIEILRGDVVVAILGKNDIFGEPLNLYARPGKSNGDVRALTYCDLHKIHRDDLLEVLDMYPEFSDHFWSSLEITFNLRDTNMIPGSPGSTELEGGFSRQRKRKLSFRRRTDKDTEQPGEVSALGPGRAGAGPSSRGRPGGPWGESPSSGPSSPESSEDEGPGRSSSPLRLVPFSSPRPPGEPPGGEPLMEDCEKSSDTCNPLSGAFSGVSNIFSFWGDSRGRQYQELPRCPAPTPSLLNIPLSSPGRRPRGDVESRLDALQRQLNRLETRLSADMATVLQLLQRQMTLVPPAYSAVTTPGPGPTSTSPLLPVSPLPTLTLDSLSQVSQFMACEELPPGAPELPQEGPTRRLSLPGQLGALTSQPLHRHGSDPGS

With COc1ccc(CO[C@H]2CC[C@@]3(C)C(=CC[C@H]4[C@@H]5CC[C@H](C(C)=O)[C@@]5(C)CC[C@@H]43)C2)cc1 [3pMBP, 3β-(4-methoxybenzyloxy)pregn-5-en-20-one] the half-life [1] was 6.83 h, the microsomal CLint ([1]; read-out: intrinsic clearance) was 3.38 µL/min/mg and the “Inhibition of CYP 2C9 activity” value (CYP 2C9) was “no significant inhibition”. The “Activity of OAT3” value (OAT3) was “did not modify the activity”, the half-life [2] was 0.89 h and the microsomal CLint ([2]; read-out: intrinsic clearance) was 26 µL/min/mg. The hERG tail currents (hERG current) was “did not modify hERG (human ether-ago-go-related gene) tail currents”, the “% inhibition” value [3, 5] was 100% and the ID50 [3, 5] was 0.015 mg/kg. For the same compound, the ID100 [3, 5] was 0.05 mg/kg, the ID50 ([3]; per os, THC 1 mg/kg) was “≈ 15 μg/kg” and the ID100 ([3]; per os, THC 1 mg/kg) was “≈ 50 μg/kg”. The “Duration of paw tremors” value (THC dependent mice) was “but not 3pMBP (0.15 mg/kg; per os) increases the duration of paw tremors”, the “Expression of CYP1A2” value (CYP1A2) was “did not increase the expression” and the “Activity of UGT1A1” value (UGT1A1) was “did not modify the activity”. For the same compound, the “Plasma concentrations of testosterone, DHEA and allopregnanolone” value [4] was “no effect”.
